Molecular target: T1, GATOR2/Sestrin2 complexes (Homo sapiens, UniProt P58004)
T1 construct: The Flag-WDR24/endogenous-Sestrin2 complex was isolated as follows; expressed in transfected cells; host or cells: HEK293T cells stably expressing FLAG-WDR24 (lentiviral vector pLJM60); Sestrin2 and the remaining GATOR2 subunits are endogenous
T1 sequence (P58004 1-480): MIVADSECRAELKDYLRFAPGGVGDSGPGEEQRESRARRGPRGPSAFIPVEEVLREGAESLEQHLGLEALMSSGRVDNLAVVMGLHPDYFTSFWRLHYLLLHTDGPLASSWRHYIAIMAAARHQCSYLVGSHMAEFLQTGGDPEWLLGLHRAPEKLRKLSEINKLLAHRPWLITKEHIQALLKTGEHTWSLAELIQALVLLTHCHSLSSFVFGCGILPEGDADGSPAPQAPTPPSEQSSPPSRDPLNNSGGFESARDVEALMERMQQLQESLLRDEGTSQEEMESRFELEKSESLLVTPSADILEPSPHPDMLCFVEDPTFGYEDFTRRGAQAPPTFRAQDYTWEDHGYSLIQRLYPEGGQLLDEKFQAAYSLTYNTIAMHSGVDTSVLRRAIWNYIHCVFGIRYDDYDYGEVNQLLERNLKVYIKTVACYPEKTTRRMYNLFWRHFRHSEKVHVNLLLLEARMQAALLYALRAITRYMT
Assay: In vitro PPI assay (Method 1): Sestrin2 bound to GATOR2, western blot, % activity relative to leucine
Assay type: binding
Settings: compound at 25 μM; leucine 25 μM = 100% activity; duplicate
Source text: This screening assay measured test compound activity in vitro on GATOR2/Sestrin2 complexes purified via immunoprecipitation of stably expressed FLAG-WDR24 from HEK293T cells. HEK293T cells (293 Ts) were engineered to stably express N-terminally tagged FLAG-WDR24 via transduction by lentivirus. Lentiviruses were produced by co-transfection of the lentiviral transfer vector pLJM60 with the […] into HEK-293T cells using the XTremeGene 9 transfection reagent (Roche Diagnostics). The media was changed 24 hours post-transfection to Dulbecco's Modified Eagle's media (DMEM) supplemented with 30% Inactivated Fetal Serum. The virus-containing supernatants were collected 48 and 72 hours after transfection and passed through a 0.45 μm filter to eliminate cells. Target cells in 6-well tissue culture plates were infected in media containing 8 μg/mL polybrene and spin infections were performed by centrifugation at 2,200 rpm for 1 hour. Twenty-four hours after infection, the virus was removed and the cells selected with the appropriate antibiotic. Cells were then grown in DMEM supplemented with 10% fetal bovine serum and antibiotics.
Seventy-two hours later, cells were placed in standard RPMI media formulated with no amino acids and supplemented with 5 mM Glucose (−AA RPMI, US Biological Life Sciences) for 1 hour then subsequently lysed in lysis buffer (40 mM HEPES, 1% Triton, 10 mM sodium β-glycerophosphate, 10 mM sodium pyrophosphate, 2.5 mM MgCl2 and protease inhibitors). […]
The resulting western blots were scanned and band intensities corresponding to Sestrin2 and FLAG-WDR24 were quantified using the LI-COR® imaging platform. […]
This screening assay measured compound activity in vitro on GATOR2/Sestrin2 complexes purified via immunoprecipitation of stably expressed Flag-WDR24 from HEK293T cells. […]

Activity of Leucine: % Activity	SMILES
B to C	CC(C)C[C@H](N)S(=O)(=O)O [Example I-157]
A to C	CC(C)C[C@H](N)C(=O)NC(C)(C)C [Example I-165]

SMILES	Activity of Leucine: % Activity
CC(C)CCC(N)C(=O)O (stereo not drawn) [Example I-41]	A (% activity relative to leucine of ≥40%)

System: mTORC1
Assay: Cell-based mTORC1 activation (Method 2), western blot of phosphorylated S6 Kinase and 4EBP1 in HEK293T cells
Settings: 100 μM; shift relative to DMSO control; HEK293T cells after leucine starvation
Description: Briefly, 800,000 HEK293T cells were plated in each well of a 6-well plate in DMEM supplemented with 10% fetal bovine serum and antibiotics. […] Cells were then lysed, processed for SDS-PAGE and western blotting was performed with antibodies directed against the mTORC1 substrates phosphorylated S6 Kinase (Thr389) and phosphorylated 4EBP1 (Thr37/46) (Cell Signaling Technology) and loading controls (beta-actin, Santa Cruz Biotechnology) as described in Kang, S. A., et al. Science 341(6144): 364-374 (2013). The intensity of the bands corresponding to the phosphorylated substrates were then normalized to the actin band using the LI-COR® imaging platform.

SMILES	Cell-Based mTORC1 Activation
CC(C)C[C@H](N)C(N)=O.Cl [Example I-23]	D to F
NC(CCCC(F)(F)F)C(=O)O (stereo not drawn) [Example I-42]	D to F
C[C@H](CC(N)C(=O)O)C(F)(F)F (stereo in doubt) [Example I-167, (2R,4R)-2-amino-5,5,5-trifluoro-4-methylpentanoic acid]	D to F
CC(C)(C)C[C@H](N)C(=O)O [Example I-43]	D to E
CC(C)C(F)(F)[C@@H](N)C(=O)O [Example I-47, (S)-2-amino-3,3-difluoro-4-methylpentanoic acid]	D (a shift relative to DMSO control of 0.5 to 2 fold)
N[C@H](CCCC(F)(F)F)C(=O)O [Example I-9, (R)-2-amino-6,6,6-trifluorohexanoic acid]	E (a shift relative to DMSO of 2.1-5 fold)
N[C@@H](CC1CCC1)C(=O)O [Example I-37]	E to F
CC(C)C(F)(F)[C@H](N)C(=O)O [Example I-46, (R)-2-amino-3,3-difluoro-4-methylpentanoic acid]	D (a shift relative to DMSO control of 0.5 to 2 fold)
CC(C)C[C@H](N)C(=O)O [Example I-44]	D (a shift relative to DMSO control of 0.5 to 2 fold)
COC(=O)[C@@H](N)CC(C)C [Example I-168]	D to E

Same assay, conditions: 30 and 100 μM; shift relative to DMSO control; HEK293T cells after leucine starvation

SMILES	Cell-Based mTORC1 Activation
CC(C)C[C@@H](N)B1OC(C)(C)C(C)(C)O1 [Example I-10]	D (a shift relative to DMSO control of 0.5 to 2 fold)

Molecular target: T2, Sestrin2 (Homo sapiens, UniProt P58004)
T2 construct: crude lysate generated from a human cell line; endogenous in cells; host or cells: Unnamed human cell line (crude lysate)
T2 sequence (P58004 1-480): T1 sequence (P58004 1-480)
Assay: Indirect ligand binding assay (ILBA, Method 7), immunoprecipitation with CST anti-Sestrin2 antibody
Settings: crude lysate of amino acid starved human cell line, 1 hour incubation
Description: Conversely, compounds that destabilized Sestrin2 as measured by thermal shift assay increased the affinity of the CST antibody for non-denatured Sestrin2. […] In one version, the assay was performed with crude lysate generated from a human cell line after a 1-hour period of amino acid starvation (cells are lysed in 1% Triton, 10 mM beta-glycerol phosphate, 10 mM sodium pyrophosphate, 40 mM HEPES [pH 7.4], 150 mM NaCl and 2.5 mM MgCl2). […] After compound incubation, samples were subjected to immunoprecipitation with the CST anti-Sestrin2 antibody for 1.5 hours followed by a 30-minute incubation with protein-A sepharose as described in L. Chantranupong, et al., Cell Reports 9:1-8 (2014). The sepharose conjugated antibody-protein complex was precipitated via centrifugation and the flow-through was subjected to a second round of immunoprecipitation with a rabbit polyclonal anti-Sestrin2 antibody (Protein Tech, #10795-1-AP) to determine that total Sestrin2 protein levels between samples were equal. SDS-PAGE was performed with the immunoprecipitation samples followed by western-blot with the mouse monoclonal anti-Sestrin2 antibody from SIGMA (cat #WH0083667M3). […] This version of the assay also measured increased instability of Sestrin2 induced by incubation with compounds.

decrease in the intensity of the band corresponding to Sestrin2 (CST antibody immunoprecipitation) [%]	SMILES
≥ 50	CC(C)C[C@H](N)C(=O)O [leucine]

— patent US12378263B2, “Modulators of sestrin-GATOR2 interaction and uses thereof” (Navitor Pharmaceuticals, Inc., priority 2015, dated 2025)
